From patent US20240327425A1, “KRAS G12D INHIBITOR AND USE THEREOF” (SHANGHAI DE NOVO PHARMATECH CO., LTD., priority 2021, published 2024)

Key:
[1] = test system: phosphorylation level of ERK1/2 in ASPC-1 human pancreatic cancer cells; experiment: pERK cell level assay (PHOSPHO-ERK1/2 HTRF kit); format: cell-based; conditions: Aspc-1 cells, 4 hours incubation
Description: In this experiment, the phosphorylation level of ERK1/2 in AGS human gastric cancer cells or ASPC-1 human pancreatic cancer cells was detected using PHOSPHO-ERK1/2 (THR202/TYR 204) (Cisibo, 64ERKPEH) kit, and the inhibitory effect of the compounds on KRAS G12D was investigated based on the phosphorylation level of ERK1/2.
On day 1, the density of AGS cell (ATCC) suspension was adjusted to 2.1×10^5 cells/mL, then the suspension was spread in a 96-well plate at 95 μL/well so that there were 2×10^4 cells per well, and the cell culture plate was incubated in a 37° C., 5% CO2 incubator for overnight. On day 2, the compound was serially diluted with 100% dimethyl sulfoxide, and then further diluted with a complete culture medium (RPMI-1640+10% FBS+1% PS) to make a working solution of the compound, which was added to a 96-well cell culture plate at 5 μL/well, and incubated in a 37° C., 5% CO2 incubator for 4 hours. After the incubation was completed, the culture medium was discarded, then 1× lysis buffer was added thereto at 50 μL/well, and the plate was shaken at room temperature for 30 minutes. 16 μL of lysis buffer was added to a white 384-well shallow well plate, then 4 μL of pre-formulated antibody mixture was added thereto, and the plate was sealed with microplate sealer and incubated at room temperature for overnight. On day 3, detection was performed on a TECAN M1000 Pro microplate reader using the HTRF setting, and the IC50 value of the compound was calculated.

[2] = target: Human KRAS G12D His-tagged protein (Homo sapiens (Human), UniProt P01116, G12D); experiment: KRAS G12D binding assay (TR-FRET); conditions: GDP 20 nM, GTP-Red
Description: The binding ability of the compound to KRAS G12D protein was detected by TR-FRET method, and the inhibitory activity of the compound on KRAS G12D protein was evaluated. Human KRAS G12D His-tagged (Cisbio, 63ADK000CB27PEG) protein was 100-fold diluted with PPI Eu detection buffer (Cisbio, 61DB9RBF), then 5 μL of which was added to a 384-well plate and centrifuged at 2000 rpm for 40 seconds. A 10 mM concentrated stock solution of the test compound was prepared with dimethyl sulfoxide, 3-fold serially diluted, then diluted to make a working solution (0.5% DMSO) with PPI Eu detection buffer, added to a 384-well plate at 5 μL/well, with the control group added with 0.5% dimethyl sulfoxide and the highest concentration of the test compound at 10 μM, and centrifuged at 2000 rpm for 40 seconds. An 80 nM GDP standard working solution (Cisbio, 63ADK000CB27PEG) was prepared with PPI Eu detection buffer and added to a 384-well plate at 5 μL/well, with the final concentration of GDP standard working solution at 20 nM. The plate was centrifuged at 2000 rpm for 40 seconds and reacted at room temperature for 30 minutes. 1×6His Eu cryptate antibody and GTP-Red reagent (Cisbio, 63ADK000CB27PEG) were prepared with PPI Eu detection buffer, mixed in a volume ratio of 1:1, 5 μL of which was then added to a 384-well plate, centrifuged at 2000 rpm for 40 seconds, and incubated at room temperature for 30 minutes. The fluorescence intensity at 620 nm and 665 nm was detected by a microplate reader, and the inhibitory activity of the compound on KRAS G12D protein was obtained by fitting a four-parameter equation.

[3] = test system: ASPC-1 human pancreatic cancer cells; experiment: Cell proliferation assay (Cell Titer-Glo), ASPC-1; format: cell-based
Description: (§1) On day 1, AGS human gastric cancer cells, ASPC-1 human pancreatic cancer cells, or GP2D human colon cancer cells (Nanjing Cobioer Biosciences Co. Ltd.) in the logarithmic growth phase were taken, digested with an appropriate amount of trypsin, formulated into a single cell suspension using RPMI 1640 (Gibco) medium containing 10% fetal bovine serum and 1% penicillin-streptomycin, counted to adjust the cell density, inoculated in a 96-well plate at 95 μL/well so that there were 3000 cells per well, and then the cell culture plate was incubated in a 37° C., 5% CO2 incubator for overnight. On day 2, a 10 mM concentrated stock solution of KRAS G12D inhibitor was 3-fold serially diluted with dimethyl sulfoxide solution, and then diluted with AGS complete culture medium to make a working solution, which was added to a cell culture plate at 5 μL/well so that the compound had the highest concentration of 10 μM and the lowest concentration of 0.0015 μM, and the control group was 0.5% dimethyl sulfoxide. The cell culture plate was briefly centrifuged and then incubated in a CO2 incubator for 72 hours. On day 5, the cell culture plate was taken out, added with Cell Titer-Glo (Promega) detection reagent in each well, incubated in the dark for 10 minutes, and then luminescence was detected using a microplate reader (Tecan, Infinite M1000 Pro). Data were analyzed using Graphpad software, and curve fitting was performed with four-parameter equation and the IC50 value of the inhibitor was calculated.

[4] = test system: GP2D human colon cancer cells; experiment: Cell proliferation assay (Cell Titer-Glo), GP2D; format: cell-based; conditions: 72 hours
Description: as §1

[5] = test system: GP2D human colon cancer cells subcutaneous xenograft tumor; experiment: In vivo pharmacodynamic experiment of subcutaneous xenograft tumor model in mice of GP2D human colon cancer cells; conditions: BALB/c nude mice; for Tumor volume (11 days, mm^3): 11 days (at grouping)
Description: Cell culture: GP2D human colon cancer cells were maintained in monolayer culture in DMEM culture medium containing 10% fetal bovine serum in a constant temperature incubator containing 5% CO2 at 37° C. Tumor cells were passaged twice a week. Cells in the exponential growth phase were harvested and counted for inoculation.
Experimental animals: BALB/c nude mice, 6 to 8 weeks, 18 to 22 g, purchased from Jiangsu GemPharmatech Co. Ltd.
Experimental method: GP2D cell line ([…]) was inoculated subcutaneously on the right back of experimental mice. The inoculation volume of each mouse was 0.1 mL. The growth of the tumor was observed regularly. When the tumor grew to about 150 mm^3, the mice were randomly grouped according to the tumor size and body weight, and the drug was administrated according to the administration plan shown in Table 1. The body weight and tumor size were measured twice a week throughout the experiment.
tumor volume (mm^3)=0.5×(tumor long diameter×tumor short diameter^2). Tumor size calculation formula: […]

[6] = Homo sapiens, ASPC1, pERK1/2 (THR202/TYR204)
[7] = Homo sapiens, ASPC1, Aspc-1, 72 hours

Chain of Human KRAS G12D His-tagged protein (P01116-2 other isoform, or with tags, fused parts or gaps G12D): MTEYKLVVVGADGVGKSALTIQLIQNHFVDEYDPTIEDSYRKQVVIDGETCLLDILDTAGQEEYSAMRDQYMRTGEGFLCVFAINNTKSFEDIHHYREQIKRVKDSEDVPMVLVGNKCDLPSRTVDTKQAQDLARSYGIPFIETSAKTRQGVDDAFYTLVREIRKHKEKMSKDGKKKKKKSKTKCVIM

Q: What does the source list for Nc1nc2c(-c3c(Cl)c4c5c(nc(OC[C@@]67CCCN6C[C@H](F)C7)nc5c3F)N3C[C@H]5CC[C@H](N5)[C@H]3CO4)cccc2s1 (single isomer, unassigned) [Compound I-12-2]?
A: IC50 [1, 6]: 8.23 nM; IC50 [2]: 3.01 nM

Q: Which IC50 [2] does the source give for [2H]C1([2H])CC[C@@]2(COc3nc4c5c(c(Cl)c(-c6cccc7sc(N)c(C#N)c67)c(F)c5n3)OC[C@@H]3[C@@H]5CC[C@H](CN43)N5)C[C@@H](F)CN12 (single isomer, unassigned) [Compound I-20-2] here?
A: 1.89 nM

Q: And the IC50 [3, 7]?
A: 6.49 nM

Q: What does the source list for [2H]C([2H])(Oc1nc2c3c(c(Cl)c(-c4cccc5sc(N)c(C#N)c45)c(F)c3n1)OC[C@@H]1[C@@H]3CC[C@H](CN21)N3)[C@@]12CCCN1C[C@H](F)C2 (single isomer, unassigned) [Compound I-24-2]?
A: IC50 [2]: 1.75 nM; IC50 [3, 7]: 6.66 nM

Q: What does the source list for [2H]C1([2H])CC[C@@]2(C([2H])([2H])Oc3nc4c5c(c(Cl)c(-c6cccc7sc(N)c(C#N)c67)c(F)c5n3)OC[C@@H]3[C@@H]5CC[C@H](CN43)N5)C[C@@H](F)CN12 (single isomer, unassigned) [Compound I-27-2]?
A: IC50 [2]: 1.4 nM; IC50 ([4]; Homo sapiens): 0.133 nM

Q: For N#Cc1c(N)sc2cccc(-c3c(Cl)c4c5c(nc(OC[C@@]67CCCN6C[C@H](F)C7)nc5c3F)N3C[C@H]5CC[C@H](N5)[C@H]3CO4)c12 [Compound I-7, 2-amino-4-((5aS,6S,9R)-3-chloro-1-fluoro-13-(((2R,7aS)-2-fluorohexahydro-1H-pyrrolizin-7a-yl)methoxy)-5a,6,7,8,9,10-hexahydro-5H-6,9-epiminoazepino[2′,1′:3,4][1,4]oxazepino[5,6,7-de]quinazolin-2-yl)benzo[b]thiophene-3-carbonitrile ditrifluoroacetate], which IC50 ([1]; pERK1/2 (THR202/TYR204)) is on record?
A: 1.59 nM

Q: And the IC50 [2]?
A: 6.59 nM

Q: And the IC50 ([3]; Aspc-1, 72 hours)?
A: 5.53 nM

Q: What does the source list for N#Cc1c(N)sc2c(F)ccc(-c3c(Cl)c4c5c(nc(OC[C@@]67CCCN6C[C@H](F)C7)nc5c3F)N3C[C@H]5CC[C@H](N5)[C@H]3CO4)c12 [Compound I-11, 2-amino-4-((5aS,6S,9R)-3-chloro-1-fluoro-13-(((2R,7aS)-2-fluorohexahydro-1H-pyrrolizin-7a-yl)methoxy)-5a,6,7,8,9,10-hexahydro-5H-6,9-epiminoazepino[2′,1′:3,4][1,4]oxazepino[5,6,7-de]quinazolin-2-yl)-7-fluorobenzo[b]thiophene-3-carbonitrile]?
A: IC50 [1, 6]: 1.01 nM; IC50 [2]: 11.2 nM; IC50 ([4]; Homo sapiens): 0.336 nM; IC50 [3, 7]: 12.6 nM

Q: With N#Cc1c(N)sc2ccc(F)c(-c3c(Cl)c4c5c(nc(OC[C@@]67CCCN6C[C@H](F)C7)nc5c3F)N3C[C@H]5CC[C@H](N5)[C@H]3CO4)c12 [Compound I-14, 2-amino-4-((5aS,6S,9R)-3-chloro-1-fluoro-13-(((2R,7aS)-2-fluorohexahydro-1H-pyrrolizin-7a-yl)methoxy)-5a,6,7,8,9,10-hexahydro-5H-6,9-epiminoazepino[2′,1′:3,4][1,4]oxazepino[5,6,7-de]quinazolin-2-yl)-5-fluorobenzo[b]thiophene-3-carbonitrile ditrifluoroacetate] as the compound, how does the IC50 ([1]; pERK1/2 (THR202/TYR204)) read?
A: 1.29 nM

Q: What about the IC50 [2] of the same compound?
A: 8.52 nM

Q: And the IC50 [4]?
A: 0.124 nM

Q: And the IC50 ([3]; Aspc-1, 72 hours)?
A: 6.76 nM

Q: Which IC50 [2] does the source give for CC(Oc1nc2c3c(c(Cl)c(-c4c(F)ccc5sc(N)c(C#N)c45)c(F)c3n1)OC[C@@H]1[C@@H]3CC[C@H](CN21)N3)[C@@]12CCCN1C[C@H](F)C2 (stereo partly drawn) [Compound I-18, 2-amino-4-((5aS,6S,9R)-3-chloro-1-fluoro-13-(1-((2R,7aS)-2-fluorohexahydro-1H-pyrrolizin-7a-yl)ethoxy)-5a,6,7,8,9,10-hexahydro-5H-6,9-epiminoazepino[2′,1′:3,4][1,4]oxazepino[5,6,7-de]quinazolin-2-yl)-5-fluorobenzo[b]thiophene-3-carbonitrile ditrifluoroacetate] here?
A: 22 nM

Q: Which results are given for Cc1ccc2sc(N)c(C#N)c2c1-c1c(Cl)c2c3c(nc(OC[C@@]45CCCN4C[C@H](F)C5)nc3c1F)N1C[C@H]3CC[C@H](N3)[C@H]1CO2 [Compound I-21, 2-amino-4-((5aS,6S,9R)-3-chloro-1-fluoro-13-(1-((2R,7aS)-2-fluorohexahydro-1H-pyrrolizin-7a-yl)methoxy)-5a,6,7,8,9,10-hexahydro-5H-6,9-epiminoazepino[2′,1′:3,4][1,4]oxazepino[5,6,7-de]quinazolin-2-yl)-5-methylbenzo[b]thiophene-3-carbonitrile ditrifluoroacetate]?
A: IC50 [2]: 9.76 nM; IC50 [3, 7]: 16.9 nM

Q: What does the source list for N#Cc1c(N)sc2c1C(c1c(Cl)c3c4c(nc(OC[C@@]56CCCN5C[C@H](F)C6)nc4c1F)N1C[C@H]4CC[C@H](N4)[C@H]1CO3)=CCC2 [Compound I-25, 2-amino-4-((5aS,6S,9R)-3-chloro-1-fluoro-13-(((2R,7aS)-2-fluorohexahydro-1H-pyrrolizin-7a-yl)methoxy)-5a,6,7,8,9,10-hexahydro-5H-6,9-epiminoazepino[2′,1′:3,4][1,4]oxazepino[5,6,7-de]quinazolin-2-yl)-6,7-dihydrobenzo[b]thiophene-3-carbonitrile ditrifluoroacetate]?
A: IC50 [2]: 12 nM; IC50 [3, 7]: 25.8 nM

Q: Which IC50 [2] does the source give for CN1CCC[C@@H]1COc1nc2c3c(c(Cl)c(-c4cccc5sc(N)c(C#N)c45)c(F)c3n1)OC[C@@H]1[C@@H]3CC[C@H](CN21)N3 [Compound I-29] here?
A: 10.8 nM

Q: How did the “Tumor volume (11 days, mm^3)” value ([5]; 3 mg/kg i.p. twice a day) turn out when C#Cc1c(F)ccc2cc(O)cc(-c3ncc4c(N5CC6CCC(C5)N6)nc(OC[C@@]56CCCN5C[C@H](F)C6)nc4c3F)c12 [Ref. A, MRTX1133, reference compound] was run?
A: 139.25 ± 17.31 mm^3

Q: And the “Tumor volume (21 days, mm^3)” value ([5]; 3 mg/kg i.p. twice a day)?
A: 137.35 ± 18.79 mm^3

Q: And the “T/C (%)” value ([5]; 3 mg/kg i.p. twice a day)?
A: 30.3%

Q: What about the “Tumor regression rate (%)” value ([5]; 3 mg/kg i.p. twice a day) of the same compound?
A: −1.4%

Q: What about the “Tumor volume (11 days, mm^3)” value ([5]; 10 mg/kg i.p. twice a day) of the same compound?
A: 139.90 ± 20.43 mm^3

Q: And the “Tumor volume (21 days, mm^3)” value ([5]; 10 mg/kg i.p. twice a day)?
A: 79.77 ± 13.97 mm^3

Q: What about the “T/C (%)” value ([5]; 10 mg/kg i.p. twice a day) of the same compound?
A: 17.6%

Q: What about the “Tumor regression rate (%)” value ([5]; 10 mg/kg i.p. twice a day) of the same compound?
A: −43.0%
